Test results as given in PubChem BioAssay (NCI).
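1) Cells in 96-well plates. 2) Compound, 48 h, 5 concentrations. 3) Linear interpolation between surrounding doses. 4) Unreached endpoint = highest concentration. Abbreviation: GI50, concentration required for 50% inhibition of growth. TGI is the concentration that stops growth completely.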

Columns and labels:
Assay in all cases: DTP human tumour cell line panel, 48 h; in the data active = GI50 below about 0.43 µM; inactive = the rest
SNB-19 CNS = tested on: SNB-19 CNS
KM12 colon = tested on: KM12 colon
OVCAR-8 ovarian = tested on: OVCAR-8 ovarian
OVCAR-4 ovarian = tested on: OVCAR-4 ovarian
BT-549 breast = tested on: BT-549 breast
UACC-257 melanoma = tested on: UACC-257 melanoma
COLO 205 colon = tested on: COLO 205 colon
A549 NSCLC = tested on: A549 NSCLC
ACHN renal = tested on: ACHN renal
LOX IMVI melanoma = tested on: LOX IMVI melanoma
SK-MEL-5 melanoma = tested on: SK-MEL-5 melanoma
NCI-H460 lung = tested on: NCI-H460 lung
SK-MEL-28 melanoma = tested on: SK-MEL-28 melanoma
RXF 393 renal = tested on: RXF 393 renal
DU-145 prostate = tested on: DU-145 prostate
SW-620 colon = tested on: SW-620 colon
MOLT-4 leukemia = tested on: MOLT-4 leukemia
UO-31 renal = tested on: UO-31 renal
SF-295 CNS = tested on: SF-295 CNS
NCI-H226 lung = tested on: NCI-H226 lung
SF-539 CNS = tested on: SF-539 CNS
TK-10 renal = tested on: TK-10 renal
OVCAR-5 ovarian = tested on: OVCAR-5 ovarian
HOP-62 NSCLC = tested on: HOP-62 NSCLC
HCC-2998 colon = tested on: HCC-2998 colon
SK-MEL-2 melanoma = tested on: SK-MEL-2 melanoma
NCI-H23 lung = tested on: NCI-H23 lung
M14 melanoma = tested on: M14 melanoma
CAKI-1 renal = tested on: CAKI-1 renal
RPMI-8226 leukemia = tested on: RPMI-8226 leukemia
SN12C renal = tested on: SN12C renal
HL-60(TB) leukemia = tested on: HL-60(TB) leukemia
SR leukemia = tested on: SR leukemia
OVCAR-3 ovarian = tested on: OVCAR-3 ovarian
A498 renal = tested on: A498 renal
786-0 renal = tested on: 786-0 renal
HS 578T breast = tested on: HS 578T breast
EKVX NSCLC = tested on: EKVX NSCLC
MDA-MB-435 = tested on: MDA-MB-435
SNB-75 CNS = tested on: SNB-75 CNS
MDA-MB-231 breast = tested on: MDA-MB-231 breast
HCT-116 colon = tested on: HCT-116 colon
PC-3 prostate = tested on: PC-3 prostate
K-562 leukemia = tested on: K-562 leukemia
MCF7 breast = tested on: MCF7 breast
IGROV1 ovarian = tested on: IGROV1 ovarian
NCI-H522 lung = tested on: NCI-H522 lung
SF-268 CNS = tested on: SF-268 CNS
T-47D breast = tested on: T-47D breast
UACC-62 melanoma = tested on: UACC-62 melanoma
NCI/ADR-RES ovarian = tested on: NCI/ADR-RES ovarian
HOP-92 NSCLC = tested on: HOP-92 NSCLC
CCRF-CEM leukemia = tested on: CCRF-CEM leukemia

CCOC(=O)/C=C/C1=C(c2csc3ccccc23)c2ccccc2CC1
57.9 µM: TGI (CAKI-1 renal)
> 100 µM: TGI (OVCAR-8 ovarian) | TGI (BT-549 breast) | TGI (A549 NSCLC) | TGI (ACHN renal) | TGI (LOX IMVI melanoma) | TGI (SK-MEL-5 melanoma) | TGI (NCI-H460 lung) | TGI (SK-MEL-28 melanoma) | TGI (RXF 393 renal) | TGI (DU-145 prostate) | TGI (SW-620 colon) | TGI (MOLT-4 leukemia) | TGI (UO-31 renal) | TGI (NCI-H226 lung) | TGI (SF-539 CNS) | TGI (OVCAR-5 ovarian) | TGI (HOP-62 NSCLC) | TGI (HCC-2998 colon) | TGI (SK-MEL-2 melanoma) | TGI (NCI-H23 lung) | TGI (M14 melanoma) | TGI (RPMI-8226 leukemia) | TGI (SN12C renal) | TGI (HL-60(TB) leukemia) | TGI (OVCAR-3 ovarian) | TGI (A498 renal) | TGI (786-0 renal) | TGI (HS 578T breast) | TGI (EKVX NSCLC) | TGI (MDA-MB-231 breast) | TGI (PC-3 prostate) | TGI (K-562 leukemia) | TGI (MCF7 breast) | TGI (IGROV1 ovarian) | TGI (NCI-H522 lung) | TGI (UACC-62 melanoma) | TGI (NCI/ADR-RES ovarian) | TGI (HOP-92 NSCLC) | TGI (CCRF-CEM leukemia)
55.5 µM: TGI (T-47D breast)
80.9 µM: TGI (SNB-19 CNS)
70.9 µM: TGI (HCT-116 colon)
56.4 µM: TGI (KM12 colon)
82.6 µM: TGI (UACC-257 melanoma)
61.7 µM: TGI (TK-10 renal)
inactive: GI50 (SNB-19 CNS) 21.3 µM | GI50 (KM12 colon) 12.7 µM | GI50 (OVCAR-8 ovarian) 79 µM | GI50 (OVCAR-4 ovarian) 11.6 µM | GI50 (BT-549 breast) 99.3 µM | GI50 (UACC-257 melanoma) 23.4 µM | GI50 (COLO 205 colon) 18.8 µM | GI50 (A549 NSCLC) 31.1 µM | GI50 (ACHN renal) 30.2 µM | GI50 (LOX IMVI melanoma) 30.6 µM | GI50 (SK-MEL-5 melanoma) 28.5 µM | GI50 (NCI-H460 lung) 37.5 µM | GI50 (SK-MEL-28 melanoma) 32 µM | GI50 (RXF 393 renal) 33.7 µM | GI50 (DU-145 prostate) 54.9 µM | GI50 (SW-620 colon) 31.8 µM | GI50 (MOLT-4 leukemia) 32.2 µM | GI50 (UO-31 renal) 58.1 µM | GI50 (SF-295 CNS) 18.4 µM | GI50 (NCI-H226 lung) > 100 µM | GI50 (SF-539 CNS) > 100 µM | GI50 (TK-10 renal) 16.6 µM | GI50 (OVCAR-5 ovarian) > 100 µM | GI50 (HOP-62 NSCLC) 41.6 µM | GI50 (HCC-2998 colon) 55.5 µM | GI50 (SK-MEL-2 melanoma) > 100 µM | GI50 (NCI-H23 lung) > 100 µM | GI50 (M14 melanoma) 29.7 µM | GI50 (CAKI-1 renal) 14.8 µM | GI50 (RPMI-8226 leukemia) 22.6 µM | GI50 (SN12C renal) 73.7 µM | GI50 (HL-60(TB) leukemia) 32.4 µM | GI50 (SR leukemia) 15.4 µM | GI50 (OVCAR-3 ovarian) 27.4 µM | GI50 (A498 renal) 55.4 µM | GI50 (786-0 renal) 57 µM | GI50 (HS 578T breast) 52.7 µM | GI50 (EKVX NSCLC) 54.2 µM | GI50 (MDA-MB-435) 4.34 µM | GI50 (SNB-75 CNS) 15.2 µM | GI50 (MDA-MB-231 breast) 34.9 µM | GI50 (HCT-116 colon) 24.6 µM | GI50 (PC-3 prostate) 19.8 µM | GI50 (K-562 leukemia) 23.2 µM | GI50 (MCF7 breast) 66.3 µM | GI50 (IGROV1 ovarian) 25.5 µM | GI50 (NCI-H522 lung) 27.6 µM | GI50 (SF-268 CNS) 28.2 µM | GI50 (T-47D breast) 12.3 µM | GI50 (UACC-62 melanoma) 23.6 µM | GI50 (NCI/ADR-RES ovarian) 38.7 µM | GI50 (HOP-92 NSCLC) 48.6 µM | GI50 (CCRF-CEM leukemia) 27.9 µM
88.4 µM: TGI (SF-295 CNS)
90 µM: TGI (SF-268 CNS)
48.8 µM: TGI (OVCAR-4 ovarian) | TGI (SR leukemia)
53.9 µM: TGI (COLO 205 colon)
74.4 µM: TGI (SNB-75 CNS)
25.7 µM: TGI (MDA-MB-435)
